# Results published in PMC4875962 (Clinical Pharmacokinetics, 2015).
# Entries after “also recorded” stand apart in the source; their conditions may differ. Where two headings read alike, the source gives them in different places. Marks after values point to notes of the source that are not given here.
# What was measured:
# [1] = tested on: multidrug resistance protein 1 (MDR1; P-gp); assay: Induction of gene expression in human hepatocytes; details: data on file
# [2] = cited from earlier work; for dose–exposure relationship: oral doses 10–180 mg
# OAT1 = details: read-out: IC50, inhibitory effect on OAT1; cited from earlier work
# [3] = cited from earlier work
# [4] = tested on: thrombin generation and platelet activation; details: postdose; cited from earlier work
# [5] = cited from earlier work; remark: listed apart in the source
# [6] = cited from earlier work; remark: listed apart in the source
# [7] = cited from earlier work; remark: listed apart in the source
# [8] = concentrations of 0.2–5 µg/mL; cited from earlier work
# [9] = tested on: ex vivo thrombus formation; details: single 60 mg dose, healthy subjects; cited from earlier work
# Caco-2 cells = details: cited from earlier work
# OCT1 = details: read-out: IC50, inhibitory effect on OCT1; cited from earlier work
# OAT3 [10] = details: read-out: IC50, inhibitory effect on OAT3; cited from earlier work
# [11] = cited from earlier work; remark: listed apart in the source
# [12] = cited from earlier work; remark: listed apart in the source
# CYP3A4 = assay: Induction of gene expression in human hepatocytes; details: data on file
# [13] = 60 mg twice daily, elderly healthy subjects; cited from earlier work
# P-glycoprotein (P-gp) = details: Caco-2 cell monolayers; cited from earlier work
# OATP1B1 [14] = details: read-out: IC50, inhibitory effect on OATP1B1; cited from earlier work
# OCT2 = details: read-out: IC50, inhibitory effect on OCT2; cited from earlier work
# CYPs = details: read-out: IC50, inhibitory effect on CYPs; cited from earlier work
# OAT3 [15] = details: cited from earlier work
# CYP1A2 = assay: Induction of gene expression in human hepatocytes; details: data on file
# [16] = cited from earlier work; remark: listed apart in the source
# [17] = tested on: plasma anti-FXa activity, PT, aPTT; details: cited from earlier work
# OATP1B1 [18] = details: cited from earlier work
# [19] = 60 mg of [14C]-edoxaban, cited from earlier work
# [20] = cited from earlier work; remark: listed apart in the source
# [21] = In vitro plasma protein binding
# [22] = intravenous 30 mg, healthy subjects
# [23] = single oral dose of edoxaban 60 mg, healthy subjects, mean ± SD
# [24] = coadministration of amiodarone, following 3 days of once daily dosing
# [25] = coadministration of cyclosporine
# [26] = coadministration of dronedarone
# [27] = coadministration of erythromycin
# [28] = coadministration of high-dose aspirin (325 mg)
# [29] = coadministration of ketoconazole
# [30] = coadministration of oral quinidine
# [31] = coadministration of sustained-release verapamil
# [32] = rifampin after 7 days of dosing
# [33] = 60 mg daily for 4 days, day 1 and day 4
structure (smiles),measurement,setting,value
CN1CCc2nc(C(=O)N[C@@H]3C[C@@H](C(=O)N(C)C)CC[C@@H]3NC(=O)C(=O)Nc3ccc(Cl)cn3)sc2C1 [edoxaban],induction of gene expression of MDR1 (P-gp),[1],do not induce
same,"effect of age, sex and race on edoxaban pharmacokinetics",[2]; after renal function is taken into account,do not affect
same,contribution of any individual metabolic pathway to total clearance,[2],≤ 10%
same,inter- and intra-subject variability in clearance and volume of distribution,[2],< 30%
same,metabolism by CYP3A4 (CYP3A4/5) (share of clearance),[2],< 10%
same,renal clearance as share of total clearance,[2],approximately 50%
same,Renal clearance,[2]; healthy subjects,about 10.7 ± 3.00 L/h
same,metabolism by CES1 (share of clearance),[2]; human-specific metabolite,< 10%
same,CL total body clearance,[2]; [22],approximately 22 L/h
same,V ss steady-state volume of distribution,[2]; [22],approximately 107 L
same,V z volume of distribution based on the terminal phase,[2]; [22],205 ± 64.8 L
same,CL total body clearance,"[2]; intravenous 30 mg, healthy subjects, listed as Edoxaban",21.8 ± 3.03 L/h
same,dose–exposure relationship,[2]; healthy subjects,approximately dose proportional; also recorded: slightly less-than-dose-proportional
same,dose–exposure relationship,"[2]; healthy subjects, listed as Edoxaban",generally linear and dose-proportional
same,terminal elimination half-life,"[2]; oral, healthy subjects",10 to 14 h
same,CLR (oral),"[2]; single oral dose of edoxaban 60 mg, healthy subjects, N = 32",9.95 ± 2.32^a L/h
same,AUC∞ (oral),[2]; [23],1766 ± 435.3 ng·h/mL
same,C max (oral),[2]; [23],256 ± 87.7 ng/mL
same,t ½ (oral),[2]; [23],11.5 ± 5.63 h
same,t max (oral),"[2]; single oral dose of edoxaban 60 mg, healthy subjects, median [minimum–maximum]",1.02 [0.500–3.00] h
same,IC50,OAT1,≥ 100 µM
same,partition in blood,[3],46%
same,time of nadir for shed blood F1+2 and β-thromboglobulin,[4],1.5 h
same,fraction absorbed in the colon,[5],approximately 13%
same,safety assessed by bleeding events versus warfarin,[6],improved safety
same,efficacy versus warfarin,"[6]; non-valvular AF, deep vein thrombosis and pulmonary embolism",noninferior
same,increase of mean peak exposure (Cmax) in the fed state vs fasted state,[7]; 60 mg single dose,6–22%
same,increase of total exposure with food,[7]; 60 mg single dose,12–15%
same,effect of food on total exposure,[7],Coadministration with food does not affect total edoxaban exposure
same,in vitro total plasma protein binding,[8],about 55%
same,ex vivo thrombus formation under high and low shear rates,[9],markedly reduced
same,permeability in Caco-2 cells,Caco-2 cells,poor
same,IC50,OCT1,≥ 100 µM
same,IC50,OAT3 [10],≥ 100 µM
same,effect on prolongation of bleeding time,[11]; coadministration of edoxaban and low-dose (100 mg) or high-dose aspirin (325 mg),additive effect
same,increase in bleeding time vs naproxen alone,"[11]; coadministration of edoxaban with naproxen, 90 % CI 98.1–151.0",22%
same,pharmacokinetic parameters vs continual treatment with edoxaban,[12]; 60 mg on day 4 after rivaroxaban 20 mg once daily for 3 days,similar
same,pharmacokinetic parameters vs 4 days of continual edoxaban,[12]; 60 mg single dose after dabigatran 150 mg twice daily for 3 days,similar
same,"anticoagulant effects (anti-FXa, PT, aPTT, ETP) vs 4 days of continual edoxaban",[12]; after switching from rivaroxaban,similar
same,"PT and anti-FXa activities, switched from dabigatran vs continuous edoxaban",[12],not different
same,aPTT and ETP after switching from dabigatran,[12],carryover effect
same,effect of warfarin on the pharmacokinetics of edoxaban,[12]; switching 24 h after cessation of warfarin,no effect
same,induction of gene expression of CYP3A4,CYP3A4,do not induce
same,rebound effect following cessation of dosing,[13],no evidence of a rebound effect
same,substrate of the efflux transporter P-gp,P-glycoprotein (P-gp),is a substrate
same,IC50,OATP1B1 [14],≥ 50 µM
same,IC50,OCT2,≥ 100 µM
same,IC50,CYPs,≥ 100 µM
same,substrate of OAT3,OAT3 [15],is not a substrate
same,induction of gene expression of CYP1A2,CYP1A2,do not induce
same,increase in peak exposure to single doses of edoxaban,[16]; [24],66%
same,increase in total exposure to single doses of edoxaban,[16]; [24],40%
same,effect on peak or total exposure to edoxaban,[16]; coadministration of atorvastatin,no effect
same,increase in peak exposure to single doses of edoxaban,[16]; [25],74%
same,increase in total exposure to single doses of edoxaban,[16]; [25],73%
same,increase in edoxaban Cmax,"[16]; coadministration of digoxin, steady state",16%
same,effect on total exposure or renal clearance at steady state,[16]; coadministration of digoxin,no significant effect
same,increase in peak exposure to single doses of edoxaban,[16]; [26],46%
same,increase in total exposure to single doses of edoxaban,[16]; [26],85%
same,increase in peak exposure to single doses of edoxaban,[16]; [27],68%
same,increase in total exposure to single doses of edoxaban,[16]; [27],85%
same,increase in steady-state peak exposure to edoxaban,[16]; [28],34%
same,increase in steady-state total exposure to edoxaban,[16]; [28],30%
same,increase in single-dose peak exposure to edoxaban,[16]; [29],89%
same,increase in single-dose total exposure to edoxaban,[16]; [29],87%
same,effect on peak and total exposure to edoxaban,[16]; coadministration of naproxen,no effect
same,increase in 24-h exposure to orally dosed edoxaban,[16]; [30],77%
same,increase in single-dose peak exposure to orally dosed edoxaban,[16]; [30],85%
same,increase in 24-h exposure to single doses of edoxaban,[16]; [31],53%
same,increase in peak exposure to single doses of edoxaban,[16]; [31],53%
same,increase in exposure to edoxaban (Cmax and AUC),[16]; concomitant P-gp inhibitor use,less than twofold
same,decrease in peak exposure to edoxaban,[16]; edoxaban 2 h after esomeprazole at steady state,about 33%
same,effect on peak and total exposure to edoxaban,[16]; enoxaparin dosed concomitantly or 12 h apart,did not affect
same,increase in Cmax of edoxaban,"[16]; esomeprazole, 2-h stagger at steady state, 90 % CI 57.98–78.07",approximately 33%
same,effect on total exposure to edoxaban,"[16]; esomeprazole, 2-h stagger at steady state, 90 % CI within 80–125 %",no significant effect
same,effect on peak and total exposure to edoxaban,"[16]; esomeprazole, concurrent dosing",no significant effect
same,increase in peak exposure to intravenous edoxaban,[16]; orally administered quinidine,7.5%
same,increase in total exposure to intravenous edoxaban,[16]; orally administered quinidine,35%
same,decrease in total edoxaban exposure,[16]; [32],about 34%
same,effect on peak edoxaban exposure,[16]; [32],no effect
same,time to peak elevation of PT and aPTT,[17]; [33],≤ 2 h
same,time to return of PT and aPTT to near-baseline levels,[17]; [33],≤ 24 h
same,"time to peak effects on anticoagulation markers (anti-FXa, PT, aPTT)",[17]; oral administration,1 to 2 h
same,time to maximum effect on plasma anti-FXa activity,"[17]; single dose 10–150 mg, healthy subjects",1 to 2 h
same,substrate of OATP1B1,OATP1B1 [18],is not a substrate
same,total radioactive dose detected in faeces,[19]; healthy subjects,62%
same,total radioactive dose detected in urine,[19]; healthy subjects,35%
same,"unchanged edoxaban in faeces, share of total administered radioactive dose",[19],49%
same,"unchanged edoxaban in urine, share of total administered radioactive dose",[19],24%
same,"change in QTcI value, one subject","[20]; 90 mg dose group, 10 h postdose",32 ms
same,upper bounds of the 95 % one-sided CIs for placebo-corrected QTcI change from time-matched baseline,"[20]; 90 and 180 mg, any time point",≤ 4 ms
same,effect on cardiac repolarization,[20]; 90 and 180 mg,did not have a threshold pharmacological effect
same,"changes in QTcI, all except one subject",[20]; all time points,below 30 ms
same,absolute value of QTcI,"[20]; any subject, 90 and 180 mg",≤ 450 ms
same,fraction unbound,[21],~0.45
